Target: T1, GPR119 (Homo sapiens, UniProt Q8TDV5)
T1 construct: host or cells: CHO-K1 (CRE-bla reporter, doxycycline-induced)
T1 sequence (Q8TDV5 1-335): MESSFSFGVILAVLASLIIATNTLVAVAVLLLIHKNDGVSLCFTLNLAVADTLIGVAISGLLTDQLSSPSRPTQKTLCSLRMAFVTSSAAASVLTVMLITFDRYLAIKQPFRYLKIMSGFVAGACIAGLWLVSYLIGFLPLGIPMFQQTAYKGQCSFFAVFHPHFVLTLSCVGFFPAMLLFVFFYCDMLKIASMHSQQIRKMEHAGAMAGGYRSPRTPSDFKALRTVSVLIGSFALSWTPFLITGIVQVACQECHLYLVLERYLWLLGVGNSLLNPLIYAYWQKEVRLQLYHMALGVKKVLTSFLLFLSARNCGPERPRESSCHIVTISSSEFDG
Test: Controlling Effect of GPR119 in CRE-bla CHO-K1 Cells (EC50)
Type: cell-based
Conditions: GPR119 CRE-bla CHO-K1 cell line, 5 hr incubation with compound, β-lactamase LiveBLAzer-FRET B/G readout; read-out: controlling effect against GPR119 in CRE-bla CHO-K1 cell line (EC50)
Procedure: Controlling Effect of GPR119 in CRE-bla CHO-K1 Cells (EC50)
The day before the experiment, GPR119 CRE-bla CHO-K1 cell line purchased from Invitrogen was seeded in a 96 black well plate in an amount of 80 μl at a density of 5×10^4 cells. After the seeding, 10 μl of doxycycline in a concentration of 1 μg/ml was added to each well and incubated in an incubator at 37° C. under 5% CO2 for about 16 to 20 hr.
The day of experiment, sample compounds were performed a 10-fold serial dilution with a culture medium at various concentrations of 1 uM to […]. Considering that the culture medium used in the seeding and doxycycline are together applied, the sample compounds were diluted to a 5-fold dilution of the planned concentration. 20 μl of the compound diluted with the culture medium was added to each well and incubated in the incubator for 5 hr. The compound-untreated group was added with 20 μl of 0.5% dimethyl sulfoxide (DMSO) diluted with the culture medium. After 5 hr from the incubation, substrate mixture of a 6-fold concentration were prepared; 6 μl of 1 mM LiveBLAzer™-FRET B/G(CCF4-AM) substrate, 60 μl of solution B, 904 μl of solution C and 30 μl of solution D. 12 μl of the substrate mixture was added to each well and allowed to be kept at room temperature for 2 hr with shading the light. Fluorescence intensity value of blue channel and green channel was determined by a fluorescence microplate reader at 409 nm/460 nm and 409 nm/[…] (excitation/emission), respectively. In order to confirm the controlling effect of the inventive compounds against GPR119, EC50 (half maximal effective concentration) was determined based on the determined values. EC50, the concentration at which 50% activity of β-lactamase, was determined according to the following Equation: Equation=[(Ti−Tz)/(C−Tz)]×100
[Wherein, Ti: Cell density of the compound-treated group; Tz: Cell density of the negative control group; and C: Cell density of the positive control group]

| SMILES | EC50 |
| --- | --- |
| CCc1cnc(N2CC[C@H](Oc3ncnc4c(-c5ccc(S(C)(=O)=O)cc5)cn(C)c34)C2)nc1 [Example 39, 4-[1-(5-ethylpyrimidin-2-yl)-pyrrolidin-3-yloxy]-7-(4-methanesulfonyl-phenyl)-5-methyl-5H-pyrrolo[3,2-d]pyrimidine] | 100 to 1000 nM |
| Cn1cc(-c2ccc(S(C)(=O)=O)cc2)c2ncnc(OC3CCN(C(=O)NC(C)(C)C)CC3)c21 [Example 40, 4-[7-(4-methanesulfonyl-phenyl)-5-methyl-5H-pyrrolo[3,2-d]pyrimidin-4-yloxy]piperidin-1-carboxylic acid tert-butylamide] | 100 to 1000 nM |
| CC(C)c1noc(N2CCC(Oc3ncnc4c(-c5ccc(N)cc5)cn(C)c34)CC2)n1 [Example 41, 4-(4-(1-(3-isopropyl-1,2,4-oxadiazol-5-yl)piperidin-4-yloxy)-5-methyl-5H-pyrrolo[3,2-d]piperidin-7-yl)benzenamine] | > 1000 nM |
| CC(C)c1noc(N2CCC(Oc3ncnc4c(-c5ccc([N+](=O)[O-])cc5)cn(C)c34)CC2)n1 [Example 42, 3-isopropyl-5-(4-(5-methyl-7-(4-nitrophenyl)-5H-pyrrolo[3,2-d]pyrimidin-4-yloxy)piperidin-1-yl)-1,2,4-oxadiazole] | > 1000 nM |
| CCc1cnc(N2CCC(Oc3ncnc4c(-c5ccc(C#N)cc5)cn(C)c34)CC2)nc1 [Example 43, 4-{4-[1-(5-ethylpyrimidin-2-yl)-piperidin-4-yloxy]-5-methyl-5H-pyrrolo[3,2-d]pyrimidin-7-yl}-benzonitrile] | > 1000 nM |
| CCc1cnc(N2CCC(Oc3ncnc4c(-c5ccc(C(C)=O)cc5)cn(C)c34)CC2)nc1 [Example 44, 1-(4-{4-[1-(5-ethylpyrimidin-2-yl)-piperidin-4-yloxy]-5-methyl-5H-pyrrolo[3,2-d]pyrimidin-7-yl}-phenyl)-ethanone] | 100 to 1000 nM |
| CC(C)N1CCC(Oc2ncnc3c(-c4ccc(S(C)(=O)=O)cc4)cn(C)c23)CC1 [Example 45, 4-(1-isopropyl-piperidin-4-yloxy)-7-(4-methanesulfonyl-phenyl)-5-methyl-5H-pyrrolo[3,2-d]pyrimidine] | 100 to 1000 nM |
| Cn1cc(-c2ccc(S(C)(=O)=O)cc2)c2ncnc(OC3CCN(C(=O)C(C)(C)C)CC3)c21 [Example 46, 1-{4-[7-(4-methanesulfonyl-phenyl)-5-methyl-5H-pyrrolo[3,2-d]pyrimidin-4-yloxy]-piperidin-1-yl}-2,2-dimethynyl-propan-1-one] | 100 to 1000 nM |
| Cn1cc(-c2ccc(F)nc2)c2ncnc(OC3CCN(C(=O)OC(C)(C)C)CC3)c21 [Example 47, tert-butyl 4-(7-(6-fluoropyridin-3-yl)-5-methyl-5H-pyrrolo[3,2-d]pyrimidin-4-yloxy)piperidine-1-carboxylate] | > 1000 nM |
| CCc1cnc(N2CCC(Oc3ncnc4c(-c5ccc(F)nc5)cn(C)c34)CC2)nc1 [Example 48, 4-(1-(5-ethylpyrimidin-2-yl)piperidin-4-yloxy)-7-(6-fluoropyridin-3-yl)-5-methyl-5H-pyrrolo[3,2-d]pyrimidine] | > 1000 nM |
| CCc1cnc(N2CCC(COc3ncnc4c(-c5ccc(S(C)(=O)=O)cc5)cn(C)c34)CC2)nc1 [Example 49, 4-((1-(5-ethylpyrimidin-2-yl)piperidin-4-yl)methoxy)-5-methyl-7-(4-methanesulfonyl-phenyl)-5H-pyrrolo[3,2-d]pyrimidine] | 100 to 1000 nM |
| CC(C)(C)OC(=O)N1CCC(Oc2ncnc3c(-c4ccc(S(C)(=O)=O)cc4)csc23)CC1 [Example 50, tert-butyl 4-(7-(4-methanesulfonyl-phenyl)thieno[3,2-d]pyrimidin-4-yloxy)piperidine-1-carboxylate] | < 100 nM |
| CC(C)c1noc(N2CCC(Oc3ncnc4c(-c5ccc(S(C)(=O)=O)cc5)csc34)CC2)n1 [Example 51] | < 100 nM |
| CS(=O)(=O)c1ccc(-c2csc3c(OC4CCN(c5nc(CC6CC6)no5)CC4)ncnc23)cc1 [Example 52, 3-(cyclopropylmethyl)-5-(4-(7-(4-methanesulfonyl-phenyl)thieno[3,2-d]pyrimidin-4-yloxy)piperidin-1-yl)-1,2,4-oxadiazole] | < 100 nM |
| CC(C)(C)c1noc(N2CCC(Oc3ncnc4c(-c5ccc(S(C)(=O)=O)cc5)csc34)CC2)n1 [Example 53, 3-tert-butyl-5-(4-(7-(4-methanesulfonyl-phenyl)thieno[3,2-d]pyrimidin-4-yloxy)piperidin-1-yl)-1,2,4-oxadiazole] | < 100 nM |
| CS(=O)(=O)c1ccc(-c2csc3c(OC4CCN(c5nc(C6CCC6)no5)CC4)ncnc23)cc1 [Example 54, 3-cyclobutyl-5-(4-(7-(4-methanesulfonyl-phenyl)thieno[3,2-d]pyrimidin-4-yloxy)piperidin-1-yl)-1,2,4-oxadiazole] | < 100 nM |
| CCc1cnc(N2CCC(Oc3ncnc4c(-c5ccc(S(C)(=O)=O)cc5)csc34)CC2)nc1 [Example 55, 4-(1-(5-ethylpyrimidin-2-yl)piperidin-4-yloxy)-7-(4-methanesulfonyl-phenyl)thieno[3,2-d]pyrimidine] | < 100 nM |
| CS(=O)(=O)c1ccc(-c2csc3c(OC4CCN(c5ncc(C6CC6)cn5)CC4)ncnc23)cc1 [Example 56, 4-[1-(5-cyclopropyl-pyrimidin-2-yl)-piperidin-4-yloxy]-7-(4-methanesulfonyl-phenyl)-thieno[3,2-d]pyrimidine] | < 100 nM |
| CCc1cnc(N2CCC(Oc3ncnc4c(-c5ccc(S(C)(=O)=O)cc5)csc34)C2)nc1 (stereo not drawn) [Example 57, 4-[1-(5-ethylpyrimidin-2-yl)-pyrrolidin-3-yloxy]-7-(4-methanesulfonyl-phenyl)-thieno[3,2-d]pyrimidine] | < 100 nM |
| CC(C)c1noc(N2CCC(Oc3ncnc4c(-c5ccc(S(C)(=O)=O)cc5)csc34)C2)n1 (stereo not drawn) [Example 58, 4-[1-(3-isopropyl-[1,2,4]oxadiazol-5-yl)-pyrrolidin-3-yloxy]-7-(4-methanesulfonyl-phenyl)-thieno[3,2-d]pyrimidine] | 100 to 1000 nM |
| CS(=O)(=O)c1ccc(-c2csc3c(OC4CCN(c5nccc(C(F)(F)F)n5)CC4)ncnc23)cc1 [Example 59] | > 1000 nM |
| CC(C)c1noc(N2CCC(Oc3ncnc4c(-c5ccc(S(C)(=O)=O)cc5F)csc34)CC2)n1 [Example 60, 7-(2-fluoro-4-methanesulfonyl-phenyl)-4-[1-(3-isopropyl-[1,2,4]oxadiazol-5-yl)piperidin-4-yloxy]thieno[3,2-d]pyrimidine] | < 100 nM |
| CCc1noc(N2CCC(Oc3ncnc4c(-c5ccc(S(C)(=O)=O)cc5F)csc34)CC2)n1 [Example 61, 3-ethyl-5-(4-(7-(2-fluoro-4-methanesulfonyl-phenyl)thieno[3,2-d]pyrimidin-4-yloxy)piperidin-1-yl)-1,2,4-oxadiazole] | < 100 nM |
| CCC(C)c1noc(N2CCC(Oc3ncnc4c(-c5ccc(S(C)(=O)=O)cc5F)csc34)CC2)n1 (stereo not drawn) [Example 62, 3-sec-butyl-5-(4-(7-(2-fluoro-4-methanesulfonyl-phenyl)thieno[3,2-d]pyrimidin-4-yloxy)piperidin-1-yl)-1,2,4-oxadiazole] | < 100 nM |
| CS(=O)(=O)c1ccc(-c2csc3c(OC4CCN(c5nc(C6CC6)no5)CC4)ncnc23)c(F)c1 [Example 63, 7-(2-fluoro-4-methanesulfonyl-phenyl)-4-[1-(3-cyclopropyl-[1,2,4]oxadiazol-5-yl)piperidin-4-yloxy]thieno[3,2]pyrimidine] | < 100 nM |
| CS(=O)(=O)c1ccc(-c2csc3c(OC4CCN(c5nc(-c6ccccc6)no5)CC4)ncnc23)c(F)c1 [Example 64, 5-(4-(7-(2-fluoro-4-methanesulfonyl-phenyl)thieno[3,2-d]pyrimidin-4-yloxy)piperidin-1-yl)-3-phenyl-1,2,4-oxadiazole] | < 100 nM |
| CS(=O)(=O)c1ccc(-c2csc3c(OC4CCN(c5nc(-c6ccc(F)cc6)no5)CC4)ncnc23)c(F)c1 [Example 65, 5-(4-(7-(2-fluoro-4-methanesulfonyl-phenyl)thieno[3,2-d]pyrimidin-4-yloxy)piperidin-1-yl)-3-(4-fluorophenyl)-1,2,4-oxadiazole] | < 100 nM |

Source: US8853213B2, “Bicyclic compound for modulating G protein-coupled receptors” (Hanmi Pharm. Co., Ltd, priority 2011, dated 2014)
